Laboratory results: US12637428B2, “Isoquinoline derivatives as SIK2 inhibitors” (Cancer Research Technology Limited, priority 2019, dated 2026)

Legend:
Format in all cases: biochemical
EPHA2 = molecular target: T1, EPHA2 (Homo sapiens, UniProt P29317); assay: EPHA2 kinase assay, IMAP fluorescence polarization; conditions: 50 or 100 μM ATP, Tris pH 8.5, average
T1 construct: purchased Life Technologies

SIK3 = molecular target: T2, SIK3 (Homo sapiens, UniProt Q9Y2K2); assay: SIK3 kinase assay, IMAP fluorescence polarization; conditions: 50 or 100 μM ATP, average
T2 construct: purchased Life Technologies
Summary of the method: (§1)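 Kinases (0.6–13 nM) incubated 60 min at room temperature with 100 nM FAM-Abltide, FAM-Srctide or FAM-HDAC peptide and 50 or 100 μM ATP in 20 mM Tris pH 7.2, 4 mM MgCl2, 0.2% BSA, 2 mM DTT. IMAP binding reagent (85:15 buffer A:B; 30:70 for Src) stopped reactions; fluorescence polarization read; compounds tested 0.00005–1 μM.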

SIK2 = molecular target: T3, SIK2 (Homo sapiens, UniProt Q9H0K1); assay: SIK2 kinase assay, IMAP fluorescence polarization; conditions: 50 or 100 μM ATP, average
T3 construct: purchased Life Technologies
Summary of the method: as §1

Src = molecular target: T4, Src (Homo sapiens, UniProt P12931); assay: Src kinase assay, IMAP fluorescence polarization; conditions: 50 or 100 μM ATP, average
T4 construct: purchased Life Technologies
Summary of the method: as §1

SIK1 = molecular target: T5, SIK1 (Homo sapiens, UniProt P57059); assay: SIK1 kinase assay, IMAP fluorescence polarization; conditions: 50 or 100 μM ATP, average
T5 construct: purchased Life Technologies
Summary of the method: as §1

Abl = molecular target: T6, Abl (Homo sapiens, UniProt P00519); assay: Abl kinase assay, IMAP fluorescence polarization; conditions: 50 or 100 μM ATP, average
T6 construct: purchased Life Technologies
Summary of the method: as §1

T2 sequence (Q9Y2K2 whole entry): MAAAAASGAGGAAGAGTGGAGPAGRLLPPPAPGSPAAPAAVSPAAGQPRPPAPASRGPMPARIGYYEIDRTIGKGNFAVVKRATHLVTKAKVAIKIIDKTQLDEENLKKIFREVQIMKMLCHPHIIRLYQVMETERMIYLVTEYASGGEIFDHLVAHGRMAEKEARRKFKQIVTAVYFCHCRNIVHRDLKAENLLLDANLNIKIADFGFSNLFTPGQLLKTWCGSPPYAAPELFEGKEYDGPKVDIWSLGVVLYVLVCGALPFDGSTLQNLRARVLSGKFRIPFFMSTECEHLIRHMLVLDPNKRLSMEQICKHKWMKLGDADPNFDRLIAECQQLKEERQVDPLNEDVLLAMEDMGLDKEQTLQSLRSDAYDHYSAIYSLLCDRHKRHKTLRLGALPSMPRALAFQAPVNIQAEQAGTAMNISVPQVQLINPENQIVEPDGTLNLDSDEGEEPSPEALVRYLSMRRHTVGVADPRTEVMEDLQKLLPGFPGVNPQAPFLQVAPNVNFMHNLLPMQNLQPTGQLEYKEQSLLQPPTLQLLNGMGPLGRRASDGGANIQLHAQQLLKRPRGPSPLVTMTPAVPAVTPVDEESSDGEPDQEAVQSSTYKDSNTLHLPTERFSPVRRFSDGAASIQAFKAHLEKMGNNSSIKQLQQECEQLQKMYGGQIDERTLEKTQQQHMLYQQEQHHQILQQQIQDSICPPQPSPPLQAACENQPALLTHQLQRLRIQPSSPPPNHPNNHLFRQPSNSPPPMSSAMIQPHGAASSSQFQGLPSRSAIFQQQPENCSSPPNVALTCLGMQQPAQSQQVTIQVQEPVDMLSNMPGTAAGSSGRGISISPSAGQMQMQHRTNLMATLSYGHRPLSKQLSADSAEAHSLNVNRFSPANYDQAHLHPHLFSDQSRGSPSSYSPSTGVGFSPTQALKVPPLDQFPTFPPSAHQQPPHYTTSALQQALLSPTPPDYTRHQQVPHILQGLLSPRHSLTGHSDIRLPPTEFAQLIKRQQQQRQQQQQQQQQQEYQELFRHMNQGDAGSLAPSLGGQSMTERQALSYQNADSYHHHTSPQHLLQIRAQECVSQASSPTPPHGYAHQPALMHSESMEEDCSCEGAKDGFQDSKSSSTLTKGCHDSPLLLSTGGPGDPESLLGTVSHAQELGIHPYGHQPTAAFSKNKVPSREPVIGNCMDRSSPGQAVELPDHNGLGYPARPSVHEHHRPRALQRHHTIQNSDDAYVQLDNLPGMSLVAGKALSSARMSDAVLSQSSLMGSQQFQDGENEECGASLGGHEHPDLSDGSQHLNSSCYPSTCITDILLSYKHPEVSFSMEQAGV
T1 sequence (P29317 24-976): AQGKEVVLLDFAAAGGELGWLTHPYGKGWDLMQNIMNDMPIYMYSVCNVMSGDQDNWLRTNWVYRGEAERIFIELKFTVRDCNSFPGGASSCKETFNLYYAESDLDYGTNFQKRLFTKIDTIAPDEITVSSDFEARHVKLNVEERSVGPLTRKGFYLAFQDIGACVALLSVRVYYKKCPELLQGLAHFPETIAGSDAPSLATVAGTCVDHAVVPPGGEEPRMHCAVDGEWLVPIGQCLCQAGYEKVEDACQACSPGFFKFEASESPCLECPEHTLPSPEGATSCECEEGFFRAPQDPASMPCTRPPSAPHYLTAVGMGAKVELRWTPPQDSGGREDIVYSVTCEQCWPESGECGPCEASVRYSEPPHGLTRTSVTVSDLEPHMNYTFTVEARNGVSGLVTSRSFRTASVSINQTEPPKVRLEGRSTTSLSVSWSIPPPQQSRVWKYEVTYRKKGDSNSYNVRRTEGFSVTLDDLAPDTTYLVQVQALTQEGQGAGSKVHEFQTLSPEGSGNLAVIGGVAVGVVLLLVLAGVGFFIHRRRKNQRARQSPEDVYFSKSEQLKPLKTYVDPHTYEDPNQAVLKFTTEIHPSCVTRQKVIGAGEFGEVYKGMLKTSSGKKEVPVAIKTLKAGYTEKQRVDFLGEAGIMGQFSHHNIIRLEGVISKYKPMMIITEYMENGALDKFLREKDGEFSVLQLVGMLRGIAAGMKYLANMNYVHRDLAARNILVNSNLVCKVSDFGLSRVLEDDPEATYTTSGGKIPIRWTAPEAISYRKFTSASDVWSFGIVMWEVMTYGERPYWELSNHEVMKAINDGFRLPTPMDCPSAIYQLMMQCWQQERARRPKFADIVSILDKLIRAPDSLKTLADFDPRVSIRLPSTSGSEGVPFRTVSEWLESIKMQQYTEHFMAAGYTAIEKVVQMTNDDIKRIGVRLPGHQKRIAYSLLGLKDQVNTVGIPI
T5 sequence (P57059 whole entry): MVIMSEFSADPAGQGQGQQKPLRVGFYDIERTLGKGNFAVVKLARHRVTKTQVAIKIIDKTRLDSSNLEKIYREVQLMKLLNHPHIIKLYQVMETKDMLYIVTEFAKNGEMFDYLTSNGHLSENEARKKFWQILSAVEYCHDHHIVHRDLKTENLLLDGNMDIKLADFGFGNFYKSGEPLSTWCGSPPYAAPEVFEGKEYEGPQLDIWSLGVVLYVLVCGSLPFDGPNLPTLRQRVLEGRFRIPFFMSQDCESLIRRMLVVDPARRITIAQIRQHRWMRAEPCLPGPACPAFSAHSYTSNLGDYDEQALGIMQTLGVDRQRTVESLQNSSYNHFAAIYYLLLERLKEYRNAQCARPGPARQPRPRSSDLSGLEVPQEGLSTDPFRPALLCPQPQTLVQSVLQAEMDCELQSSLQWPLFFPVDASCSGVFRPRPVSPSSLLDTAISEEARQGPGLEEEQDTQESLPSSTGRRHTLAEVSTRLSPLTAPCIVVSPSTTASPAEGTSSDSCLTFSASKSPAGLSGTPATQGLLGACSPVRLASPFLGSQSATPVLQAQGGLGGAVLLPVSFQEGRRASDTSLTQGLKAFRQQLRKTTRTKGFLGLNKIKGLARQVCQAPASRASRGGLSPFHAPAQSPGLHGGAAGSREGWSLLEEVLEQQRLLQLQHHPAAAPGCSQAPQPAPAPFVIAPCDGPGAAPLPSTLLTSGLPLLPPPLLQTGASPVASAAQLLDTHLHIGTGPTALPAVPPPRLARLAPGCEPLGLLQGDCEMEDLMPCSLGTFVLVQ
T4 sequence (P12931 whole entry): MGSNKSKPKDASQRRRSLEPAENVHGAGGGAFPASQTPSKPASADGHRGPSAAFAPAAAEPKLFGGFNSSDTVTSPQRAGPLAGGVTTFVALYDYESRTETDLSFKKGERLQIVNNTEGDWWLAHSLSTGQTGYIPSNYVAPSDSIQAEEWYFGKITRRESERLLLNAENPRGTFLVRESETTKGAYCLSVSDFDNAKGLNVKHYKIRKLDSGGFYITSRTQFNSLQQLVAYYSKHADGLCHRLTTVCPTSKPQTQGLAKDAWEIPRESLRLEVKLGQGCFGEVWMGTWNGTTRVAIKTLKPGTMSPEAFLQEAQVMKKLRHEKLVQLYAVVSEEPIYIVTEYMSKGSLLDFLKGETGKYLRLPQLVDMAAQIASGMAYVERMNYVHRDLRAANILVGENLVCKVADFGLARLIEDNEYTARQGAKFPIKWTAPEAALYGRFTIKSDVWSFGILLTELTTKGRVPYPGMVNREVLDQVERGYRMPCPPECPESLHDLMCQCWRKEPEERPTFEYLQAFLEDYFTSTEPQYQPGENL
T3 sequence (Q9H0K1 whole entry): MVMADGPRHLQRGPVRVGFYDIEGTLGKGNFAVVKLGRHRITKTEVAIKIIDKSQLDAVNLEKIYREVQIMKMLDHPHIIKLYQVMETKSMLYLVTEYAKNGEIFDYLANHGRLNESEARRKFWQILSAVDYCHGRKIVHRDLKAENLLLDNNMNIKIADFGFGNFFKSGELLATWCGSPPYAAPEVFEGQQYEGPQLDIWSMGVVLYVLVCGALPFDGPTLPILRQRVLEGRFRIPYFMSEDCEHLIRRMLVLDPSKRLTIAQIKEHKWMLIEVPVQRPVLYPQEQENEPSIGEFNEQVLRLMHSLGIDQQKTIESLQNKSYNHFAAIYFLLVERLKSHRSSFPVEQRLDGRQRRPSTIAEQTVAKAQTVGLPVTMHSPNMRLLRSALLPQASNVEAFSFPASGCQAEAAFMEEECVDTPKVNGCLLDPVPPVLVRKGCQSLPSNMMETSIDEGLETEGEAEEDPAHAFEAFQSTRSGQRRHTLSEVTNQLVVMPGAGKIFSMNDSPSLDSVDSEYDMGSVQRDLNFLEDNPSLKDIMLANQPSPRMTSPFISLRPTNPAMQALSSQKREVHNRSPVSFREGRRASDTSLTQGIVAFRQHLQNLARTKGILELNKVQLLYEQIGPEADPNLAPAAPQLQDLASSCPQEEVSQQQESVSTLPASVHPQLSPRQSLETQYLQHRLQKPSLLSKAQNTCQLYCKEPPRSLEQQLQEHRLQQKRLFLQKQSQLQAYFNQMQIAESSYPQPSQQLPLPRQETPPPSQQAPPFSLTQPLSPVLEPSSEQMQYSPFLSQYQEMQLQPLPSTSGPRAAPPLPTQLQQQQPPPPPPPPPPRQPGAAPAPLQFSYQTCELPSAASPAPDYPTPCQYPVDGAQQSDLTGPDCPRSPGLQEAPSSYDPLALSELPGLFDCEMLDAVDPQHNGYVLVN

Row | SMILES | Ki (EPHA2) [nM] | Ki (SIK3) [nM] | Ki (SIK2) [nM] | Ki (Src) [nM] | Ki (SIK1) [nM] | Ki (Abl) [nM]
1 | Cc1cccc(F)c1-c1cc(N[C@H]2CCN(C)C2)c2cc(N)ncc2c1 [Example 70, 7-(2-fluoro-6-methyl-phenyl)-N5-[(3S)-1-methylpyrrolidin-3-yl]isoquinoline-3,5-diamine] | 74.6 | 4.14 | 0.111 | 84.8 | 0.439 | 9.94
2 | Cc1cccc(F)c1-c1cc(NC2CCNCC2)c2ccncc2c1 [Example 49, 7-(2-Fluoro-6-methyl-phenyl)-N-(4-piperidyl)isoquinolin-5-amine] | 175 | 0.778 | 0.116 | 219 | 0.496 | > 1000
3 | Cc1cccc(F)c1-c1cc(N[C@H]2CCNC2)c2cc(N)ncc2c1 [Example 7, 7-(2-fluoro-6-methyl-phenyl)-N5-[(3S)-pyrrolidin-3-yl]isoquinoline-3,5-diamine] | 199 | 0.325 | 0.0496 | 193 | 0.414 | 5.55
4 | Cc1cccc(F)c1-c1cc(N[C@@H]2CCCCNC2)c2cc(N)ncc2c1 [Example 17, N5-[(3R)-azepan-3-yl]-7-(2-fluoro-6-methyl-phenyl)isoquinoline-3,5-diamine] | > 1000 | 1.65 | 0.096 | > 1000 | 0.463 | 2.55
5 | Cc1cccc(F)c1-c1cc(NC2CCN(C)CC2)c2cc(N)ncc2n1 [Example 121, 2-(2-Fluoro-6-methyl-phenyl)-N4-(1-methyl-4-piperidyl)-1,7-naphthyridine-4,6-diamine] | 2650 | 488 | 46 | > 10000 | 178 | > 10000
6 | CN[C@H]1CCCN(c2cc(-c3c(C)cccc3F)cc3cnc(N)cc23)C1 [Example 18, 7-(2-fluoro-6-methyl-phenyl)-5-[(3S)-3-(methylamino)-1-piperidyl]isoquinolin-3-amine] | 100 | 7.09 | 0.196 | 53.4 | 0.656 | 1.88
7 | Cc1cccc(F)c1-c1cc(N[C@H]2CC[C@H](O)CC2)c2cc(N)ncc2c1 [Example 109, 4-[[3-amino-7-(2-fluoro-6-methyl-phenyl)-5-isoquinolyl]amino]cyclo hexanol] | > 1000 | 14.9 | 1.6 | 3330 | 3.76 | 74.8
8 | CCN1CCC(Nc2cc(-c3c(C)cccc3Cl)cc3cncnc23)CC1 [Example 131, 6-(2-chloro-6-methyl-phenyl)-N-(1-ethyl-4-piperidyl)quinazolin-8-amine] | 75.6 | 20.9 | 5.59 | 285 | 5.39 | 237
9 | Cc1cccc(F)c1-c1cc(N[C@H]2CCCN(C)C2)c2cc(N)ncc2c1 [Example 86, 7-(2-fluoro-6-methyl-phenyl)-N5-[(3S)-1-methyl-3-piperidyl] isoquinoline-3,5-diamine] | 22.3 | 1.98 | 0.0838 | 34.3 | 0.656 | 6.72
10 | Cc1cccc(F)c1-c1cc(N[C@@H]2CCCCN(C)C2)c2cc(N)ncc2c1 [Example 80, 7-(2-fluoro-6-methyl-phenyl)-N5-[(3R)-1-methylazepan-3-yl]isoquinoline-3,5-diamine] | > 1000 | 4.9 | 0.448 | 48.6 | 0.905 | 15.2
11 | Cc1cccc(Cl)c1-c1ccc2c(C(=O)N[C@@H]3CCNC3)c(N)ncc2c1 [Example 42, 3-amino-7-(2-chloro-6-methyl-phenyl)-N-[(3R)-pyrrolidin-3-yl]isoquinoline-4-carboxamide] | 173 | 100 | 6.55 | 202 | 17 | 340
12 | Cc1cccc(F)c1-c1cc(NC2CCNCC2)c2cc(NC(C)C)ncc2c1 [Example 28, 7-(2-fluoro-6-methyl-phenyl)-N3-isopropyl-N5-(4-piperidyl)isoquinoline-3,5-diamine] | > 1000 | 0.504 | 0.155 | 413 | 1.39 | 14.8
13 | Cc1cccc(F)c1-c1cc(N[C@H]2CCCCNC2)c2cc(N)ncc2c1 [Example 23, N5-[(3S)-azepan-3-yl]-7-(2-fluoro-6-methyl-phenyl)isoquinoline-3,5-diamine] | 24.6 | 0.171 | 0.0488 | 15.9 | 0.287 | 3.75
14 | Cc1cccc(F)c1-c1cc(N[C@H]2CCCNC2)c2cc(N)ncc2c1 [Example 26, 7-(2-fluoro-6-methyl-phenyl)-N5-[(3S)-3-piperidyl]isoquinoline-3,5-diamine] | 24.6 | 0.0838 | 0.0395 | 163 | 0.302 | 0.341
15 | Cc1cccc(F)c1-c1cc(NCC2CCN(C)CC2)c2cc(N)ncc2c1 [Example 71, 7-(2-fluoro-6-methyl-phenyl)-N5-[(1-methyl-4-piperidyl)methyl] isoquinoline-3,5-diamine] | > 1000 | 5.67 | 0.486 | 149 | 1.17 | 15.6
16 | Cc1cccc(F)c1-c1cc(NC2CCNCC2)c2ncncc2c1 [Example 123, 6-(2-Fluoro-6-methyl-phenyl)-N-(4-piperidyl)quinazolin-8-amine] | 216 | 6.92 | 1.86 | > 1000 | 2.72 | > 1000
17 | Cc1cccc(F)c1-c1ccc2c(C(=O)NC3CN(C)C3)c(N)ncc2c1 [Example 89, 3-Amino-7-(2-fluoro-6-methyl-phenyl)-N-(1-methylazetidin-3-yl)isoquinoline-4-carboxamide] | 1850 | 130 | 5.31 | 1040 | 53.2 | 83.7
18 | Cc1cccc(Cl)c1-c1cc(NC2CCNCC2)c2nc(N)ncc2c1 [Example 137, 6-(2-chloro-6-methyl-phenyl)-N8-(4-piperidyl)quinazoline-2,8-diamine] | 9.22 | 0.51 | 0.0693 | 18.7 | 0.296 | 22.5
19 | Cc1cccc(F)c1-c1cc(C(=O)NC2CCNCC2)c2cc(N)ncc2c1 [Example 52, 3-Amino-7-(2-fluoro-6-methyl-phenyl)-N-(4-piperidyl)isoquinoline-5-carboxamide] | 23.9 | 11.5 | 3.09 | 60 | 5.45 | 12.1
20 | Cc1cccc(F)c1-c1cc(OC2CN(C)C2)c2cc(N)ncc2c1 [Example 102, 7-(2-fluoro-6-methyl-phenyl)-5-(1-methylazetidin-3-yl)oxy-isoquinolin-3-amine] | > 1000 | 5.27 | 0.219 | 274 | 1.46 | 24.6
21 | Cc1cccc(F)c1-c1cc(C(=O)NC2CCN(C)C2)c2cc(N)ncc2c1 (stereo not drawn) [Example 99, 3-Amino-7-(2-fluoro-6-methyl-phenyl)-N-(1-methylpyrrolidin-3-yl)isoquinoline-5-carboxamide] | 29.2 | 38.8 | 2.91 | 32.9 | 5.62 | 3.04
